The results in this text go back to patent publication US10130633B2, “Compounds” (BAYER PHARMA AKTIENGESELLSCHAFT, priority 2013, dated 2018).

Assay [1] deals with constitutive active colorectal cancer cell (CRC) Wnt pathway. The assay is described as follows: HCT116 TOPFlash cellular reporter assay (Super TopFlash luciferase), constitutive active Wnt pathway. It counts as cell-based. To be noted: Homo sapiens, HCT-116, 36 h, HCT116 TOP reporter cells, 36 hours incubation, luciferase expression. As for the experimental part:
In order to discover and characterize small molecules which inhibit the constitutive active colorectal cancer cell (CRC) Wnt pathway, a cellular reporter assay was employed. […] Stable transfectants were generated by cotransfection with pcDNA3 and selection of stable transfected cells with 1 mg/ml G418.
(In a reporter assay the amount or activity of a reporter protein is the signal.)

The subject of assay [2] is HCT116 FOP control reporter cell line. The assay is described as follows: HCT116 FOPFlash control reporter assay (FOP control vector, non-functional TCF elements). It counts as cell-based. To be noted: Homo sapiens, HCT-116, 36 h, HCT116 FOP control reporter cells, 36 hours incubation, luciferase expression. An excerpt: In a parallel approach, HCT116 cells were cotransfected with the FOP control vector and pcDNA3. The FOP vector is identical to the TOP construct, but it contains instead of functional TCF elements a randomized, non-functional sequence. For this transfection a stable transfected cell line was generated as well.

Where a name gives a salt, the structure may show the parent alone. Where only a bound is given, the exact number is not on record here.

One may read the IC50 as the point on the concentration scale where inhibition reaches its midpoint. Higher therefore signals weaker potency. With `CN1CCN(CC(=O)Nc2cc(C(=O)Nc3nnc(-c4ccccc4Cl)s3)ccc2OC(F)(F)F)CC1` [Example 148, N-[5-(2-chlorophenyl)-1,3,4-thiadiazol-2-yl]-3-{[(4-methylpiperazin-1-yl)acetyl]amino}-4-(trifluoromethoxy)benzamide], the results for the IC50 in assay [1] and in assay [2] were 205 nM and 36.5 µM, respectively.

For `CN1CCN(CC(=O)Nc2cc(C(=O)Nc3nnc(-c4ccc(F)cc4)s3)ccc2OC(F)(F)F)CC1` [Example 149, N-[5-(4-fluorophenyl)-1,3,4-thiadiazol-2-yl]-3-{[(4-methylpiperazin-1-yl)acetyl]amino}-4-(trifluoromethoxy)benzamide], the IC50 was 704 nM in assay [1] and 47.5 µM in assay [2].

Turning to `CN1CCN(CC(=O)Nc2cc(C(=O)Nc3nnc(-c4ccccc4F)s3)ccc2OC(F)(F)F)CC1` [Example 150, N-[5-(2-fluorophenyl)-1,3,4-thiadiazol-2-yl]-3-{[(4-methylpiperazin-1-yl)acetyl]amino}-4-(trifluoromethoxy)benzamide], the IC50 in assay [1] is 76 nM; in assay [2], ≥ 50 µM.

Turning to `CN1CCN(CC(=O)Nc2cc(C(=O)Nc3nnc(-c4cccc(F)c4)s3)ccc2OC(F)(F)F)CC1` [Example 152, N-[5-(3-fluorophenyl)-1,3,4-thiadiazol-2-yl]-3-{[(4-methylpiperazin-1-yl)acetyl]amino}-4-(trifluoromethoxy)benzamide], the IC50 in assay [1] was 200 nM; in assay [2], ≥ 50 µM.

For `O=C(CN1CCOCC1)Nc1cc(C(=O)Nc2nnc(-c3cccc(F)c3)s2)ccc1OC(F)(F)F` [Example 153, N-[5-(3-fluorophenyl)-1,3,4-thiadiazol-2-yl]-3-[(morpholin-4-ylacetyl)amino]-4-(trifluoromethoxy)benzamide], the IC50 in assay [1] is 132 nM; in assay [2], 30 µM.

As to `O=C(CN1CCOCC1)Nc1cc(C(=O)Nc2nnc(-c3cccc(Cl)c3)s2)ccc1OC(F)(F)F` [Example 154, N-[5-(3-chlorophenyl)-1,3,4-thiadiazol-2-yl]-3-[(morpholin-4-ylacetyl)amino]-4-(trifluoromethoxy)benzamide], the IC50 in assay [1] was 420 nM; in assay [2], ≥ 50 µM.

As to `COCCNC(=O)c1ccc(C(=O)Nc2nnc(-c3ccccc3)s2)cc1NC(=O)CN1CCN(C)CC1` [Example 155, N^1-(2-methoxyethyl)-2-{[(4-methylpiperazin-1-yl)acetyl]amino}-N^4-(5-phenyl-1,3,4-thiadiazol-2-yl)terephthalamide], the IC50 in assay [1] turned out to be 592 nM; in assay [2] it was 32.5 µM.

In the case of `COCCNC(=O)c1ccc(C(=O)Nc2nnc(-c3ccccc3)s2)cc1NC(=O)CN1CCOCC1` [Example 156, N^1-(2-methoxyethyl)-2-[(morpholin-4-ylacetyl)amino]-N^4-(5-phenyl-1,3,4-thiadiazol-2-yl)terephthalamide], the IC50 is 542 nM in assay [1] and ≥ 50 µM in assay [2].

As to `Cc1ccc(C(=O)Nc2nnc(-c3ccccc3)s2)cc1NC(=O)C1(N2CCN(C)CC2)CC1` [Example 157, 4-methyl-3-({[1-(4-methylpiperazin-1-yl)cyclopropyl]carbonyl}amino)-N-(5-phenyl-1,3,4-thiadiazol-2-yl)benzamide hydrochloride (1:1)], the figures for the IC50 in assay [1] and in assay [2] were 96.6 nM and ≥ 50 µM, respectively.

On to `CN1CCN(CC(=O)Nc2cc(C(=O)Nc3ccc(-c4ccccc4)cn3)ccc2OC(F)(F)F)CC1` [Example 158, 3-{[(4-methylpiperazin-1-yl)acetyl]amino}-N-(5-phenylpyridin-2-yl)-4-(trifluoromethoxy)benzamide], for which the values for the IC50 in assay [1] and in assay [2] were 73.6 nM and 21.8 µM, respectively.

Take `CC1CN(CC(=O)Nc2cc(C(=O)Nc3nnc(-c4ccccc4)s3)ccc2OC(F)(F)F)CCN1C` (stereo not drawn) [Example 160, 3-{[(3,4-dimethylpiperazin-1-yl)acetyl]amino}-N-(5-phenyl-1,3,4-thiadiazol-2-yl)-4-(trifluoromethoxy)benzamide]: the values for the IC50 in assay [1] and in assay [2] were 948 nM and 28 µM, respectively.

Regarding `C[C@@H]1CN(C)CCN1CC(=O)Nc1cc(C(=O)Nc2ccc(-c3ccccc3F)nc2)ccc1OC(F)(F)F` [Example 161, 3-({[(2R)-2,4-dimethylpiperazin-1-yl]acetyl}amino)-N-[6-(2-fluorophenyl)pyridin-3-yl]-4-(trifluoromethoxy)benzamide], the IC50 in assay [1] was 325 nM; in assay [2], 10 µM.

As to `C[C@H]1CN(C)CCN1CC(=O)Nc1cc(C(=O)Nc2ccc(-c3ccccc3F)nc2)ccc1OC(F)(F)F` [Example 162, 3-({[(2S)-2,4-dimethylpiperazin-1-yl]acetyl}amino)-N-[6-(2-fluorophenyl)pyridin-3-yl]-4-(trifluoromethoxy)benzamide], the IC50 in assay [1] is 85.5 nM; in assay [2], ≥ 50 µM.

Take `C[C@H]1CN(CC(=O)Nc2cc(C(=O)Nc3ccc(-c4ccccc4F)nc3)ccc2OC(F)(F)F)CCN1C` [Example 163, 3-({[(3S)-3,4-dimethylpiperazin-1-yl]acetyl}amino)-N-[6-(2-fluorophenyl)pyridin-3-yl]-4-(trifluoromethoxy)benzamide]: the IC50 was 57 nM in assay [1] and ≥ 50 µM in assay [2].

For `C[C@@H]1CN(CC(=O)Nc2cc(C(=O)Nc3ccc(-c4ccccc4F)nc3)ccc2OC(F)(F)F)CCN1C` [Example 164, 3-({[(3R)-3,4-dimethylpiperazin-1-yl]acetyl}amino)-N-[6-(2-fluorophenyl)pyridin-3-yl]-4-(trifluoromethoxy)benzamide], the IC50 in assay [1] was 220 nM; in assay [2], ≥ 50 µM.

For the molecule `CC1CN(C)CCN1CC(=O)Nc1cc(C(=O)Nc2ccc(-c3ccccc3F)nc2)ccc1OC(F)(F)F` (stereo not drawn) [Example 165, 3-{[(2,4-dimethylpiperazin-1-yl)acetyl]amino}-N-[6-(2-fluorophenyl)pyridin-3-yl]-4-(trifluoromethoxy)benzamide], the IC50 came out at 51 nM in assay [1] and 7.2 µM in assay [2].

As for `CN1C2CCC1CN(CC(=O)Nc1cc(C(=O)Nc3ccc(-c4ccccc4F)nc3)ccc1OC(F)(F)F)C2` [Example 166, N-[6-(2-fluorophenyl)pyridin-3-yl]-3-{[(8-methyl-3,8-diazabicyclo[3.2.1]oct-3-yl)acetyl]amino}-4-(trifluoromethoxy)benzamide], the results for the IC50 in assay [1] and in assay [2] were 148 nM and 3.9 µM, respectively.

Regarding `CC1CN(C)CCN1CC(=O)Nc1cc(C(=O)Nc2nnc(-c3ccccc3)s2)ccc1OC(F)(F)F` (stereo not drawn) [Example 167, 3-{[(2,4-dimethylpiperazin-1-yl)acetyl]amino}-N-(5-phenyl-1,3,4-thiadiazol-2-yl)-4-(trifluoromethoxy)benzamide], the results for the IC50 in assay [1] and in assay [2] were 685 nM and ≥ 50 µM, respectively.

For `CN1CCCN(CC(=O)Nc2cc(C(=O)Nc3nnc(-c4ccccc4)s3)ccc2OC(F)(F)F)CC1` [Example 168, 3-{[(4-methyl-1,4-diazepan-1-yl)acetyl]amino}-N-(5-phenyl-1,3,4-thiadiazol-2-yl)-4-(trifluoromethoxy)benzamide], the IC50 in assay [1] came out at 1080 nM; in assay [2], 12 µM.

On to `O=C(CN1CCCOCC1)Nc1cc(C(=O)Nc2nnc(-c3ccccc3)s2)ccc1OC(F)(F)F` [Example 169, 3-[(1,4-oxazepan-4-ylacetyl)amino]-N-(5-phenyl-1,3,4-thiadiazol-2-yl)-4-(trifluoromethoxy)benzamide], for which the IC50 in assay [1] is 66 nM; in assay [2] it was ≥ 50 µM.

On to `O=C(CN1CCOCC1)Nc1cc(C(=O)Nc2nnc(-c3ccccc3)s2)ccc1OC1CC1` [Example 170, 4-(cyclopropyloxy)-3-[(morpholin-4-ylacetyl)amino]-N-(5-phenyl-1,3,4-thiadiazol-2-yl)benzamide], for which the IC50 is 118 nM in assay [1] and ≥ 50 µM in assay [2].

Turning to `CN1CCN(C2(C(=O)Nc3cc(C(=O)Nc4nnc(-c5ccccc5)s4)ccc3OC3CC3)CC2)CC1` [Example 171, 4-(cyclopropyloxy)-3-({[1-(4-methylpiperazin-1-yl)cyclopropyl]carbonyl}amino)-N-(5-phenyl-1,3,4-thiadiazol-2-yl)benzamide], the IC50 was 102 nM in assay [1] and ≥ 50 µM in assay [2].

`CCN1CCN(CC(=O)Nc2cc(C(=O)Nc3nnc(-c4ccccc4)s3)ccc2OC(F)(F)F)CC1` [Example 172, 3-{[(4-ethylpiperazin-1-yl)acetyl]amino}-N-(5-phenyl-1,3,4-thiadiazol-2-yl)-4-(trifluoromethoxy)benzamide]: the figures for the concentration for half-maximal inhibition (IC50) in assay [1] and in assay [2] were 855 nM and ≥ 50 µM, respectively.

`CN1CCN(CC(=O)Nc2cc(C(=O)Nc3nnc(-c4ccccc4)s3)ccc2Cl)CC1` [Example 173, 4-chloro-3-{[(4-methylpiperazin-1-yl)acetyl]amino}-N-(5-phenyl-1,3,4-thiadiazol-2-yl)benzamide]: the IC50 in assay [1] was 520 nM; in assay [2] it was ≥ 50 µM.

As for `CN1CCN(CC(=O)Nc2cc(C(=O)Nc3nnc(-c4ccccc4)s3)ccc2C#N)CC1` [Example 174, 4-cyano-3-{[(4-methylpiperazin-1-yl)acetyl]amino}-N-(5-phenyl-1,3,4-thiadiazol-2-yl)benzamide], the IC50 in assay [1] was 3800 nM; in assay [2], ≥ 50 µM.

As to `Cc1ccccc1-c1nnc(NC(=O)c2ccc(OC(F)F)c(NC(=O)CN3CCN(C)CC3)c2)s1` [Example 175, 4-(difluoromethoxy)-N-[5-(2-methylphenyl)-1,3,4-thiadiazol-2-yl]-3-{[(4-methylpiperazin-1-yl)acetyl]amino}benzamide], the figures for the IC50 in assay [1] and in assay [2] were 215 nM and 7.1 µM, respectively.

As to `COCc1ccc(C(=O)Nc2nnc(-c3ccccc3C)s2)cc1NC(=O)CN1CCOCC1` [Example 176, 4-(methoxymethyl)-N-[5-(2-methylphenyl)-1,3,4-thiadiazol-2-yl]-3-[(morpholin-4-ylacetyl)amino]benzamide], the IC50 is 315 nM in assay [1] and ≥ 50 µM in assay [2].
